Source: PubChem BioAssay (NCI)
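The compound was tested at five concentrations on cells cultured in 96-well plates, with a 48-hour exposure period. TGI is the concentration that stops growth completely.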

Columns and labels:
Assay in all cases: DTP human tumour cell line panel, 48 h
[1] = test system: 786-0 renal
[2] = test system: A498 renal
[3] = test system: A549 NSCLC
[4] = test system: ACHN renal
[5] = test system: CAKI-1 renal
[6] = test system: CCRF-CEM leukemia
[7] = test system: COLO 205 colon
[8] = test system: DLD-1 colon
[9] = test system: DMS 114 small cell lung
[10] = test system: EKVX NSCLC
[11] = test system: HCC-2998 colon
[12] = test system: HCT-116 colon
[13] = test system: HL-60(TB) leukemia
[14] = test system: HOP-62 NSCLC
[15] = test system: HOP-92 NSCLC
[16] = test system: HT29 colon
[17] = test system: IGROV1 ovarian
[18] = test system: K-562 leukemia
[19] = test system: KM12 colon
[20] = test system: KM20L2 colon
[21] = test system: M14 melanoma
[22] = test system: M19-MEL melanoma
[23] = test system: MALME-3M melanoma
[24] = test system: MOLT-4 leukemia
[25] = test system: NCI-H23 lung
[26] = test system: NCI-H460 lung
[27] = test system: NCI-H522 lung
[28] = test system: OVCAR-3 ovarian
[29] = test system: OVCAR-4 ovarian
[30] = test system: OVCAR-5 ovarian
[31] = test system: OVCAR-8 ovarian
[32] = test system: RPMI-8226 leukemia
[33] = test system: RXF 393 renal
[34] = test system: RXF-631 renal
[35] = test system: SF-268 CNS
[36] = test system: SF-295 CNS
[37] = test system: SF-539 CNS
[38] = test system: SK-MEL-2 melanoma
[39] = test system: SK-MEL-28 melanoma
[40] = test system: SK-MEL-5 melanoma
[41] = test system: SK-OV-3 ovarian
[42] = test system: SN12C renal
[43] = test system: SNB-19 CNS
[44] = test system: SR leukemia
[45] = test system: SW-620 colon
[46] = test system: TK-10 renal
[47] = test system: UACC-257 melanoma
[48] = test system: UACC-62 melanoma
[49] = test system: UO-31 renal
[50] = test system: DMS 273 small cell lung
[51] = test system: HCT-15 colon
[52] = test system: HOP-18 NSCLC
[53] = test system: LOX IMVI melanoma
[54] = test system: LXFL 529 NSCLC
[55] = test system: NCI-H226 lung
[56] = test system: SNB-75 CNS
[57] = test system: SNB-78 CNS
[58] = test system: U251 CNS
[59] = test system: XF 498 CNS

Structure (SMILES): C[N+](C)(C)CC(=O)N/N=C(/Cc1nc2ccc([N+](=O)[O-])cc2[nH]c1=O)C(=O)Nc1cc(C(F)(F)F)ccc1Cl
- TGI [1]: > 100 µM
- TGI [2]: > 100 µM
- TGI [3]: > 100 µM
- TGI [4]: > 100 µM
- TGI [5]: > 100 µM
- TGI [6]: > 100 µM
- TGI [7]: > 100 µM
- TGI [8]: > 100 µM
- TGI [9]: > 100 µM
- TGI [10]: > 100 µM
- TGI [11]: > 100 µM
- TGI [12]: > 100 µM
- TGI [13]: > 100 µM
- TGI [14]: > 100 µM
- TGI [15]: > 100 µM
- TGI [16]: > 100 µM
- TGI [17]: > 100 µM
- TGI [18]: > 100 µM
- TGI [19]: > 100 µM
- TGI [20]: > 100 µM
- TGI [21]: > 100 µM
- TGI [22]: > 100 µM
- TGI [23]: > 100 µM
- TGI [24]: > 100 µM
- TGI [25]: > 100 µM
- TGI [26]: > 100 µM
- TGI [27]: > 100 µM
- TGI [28]: > 100 µM
- TGI [29]: > 100 µM
- TGI [30]: > 100 µM
- TGI [31]: > 100 µM
- TGI [32]: > 100 µM
- TGI [33]: > 100 µM
- TGI [34]: > 100 µM
- TGI [35]: > 100 µM
- TGI [36]: > 100 µM
- TGI [37]: > 100 µM
- TGI [38]: > 100 µM
- TGI [39]: > 100 µM
- TGI [40]: > 100 µM
- TGI [41]: > 100 µM
- TGI [42]: > 100 µM
- TGI [43]: > 100 µM
- TGI [44]: > 100 µM
- TGI [45]: > 100 µM
- TGI [46]: > 100 µM
- TGI [47]: > 100 µM
- TGI [48]: > 100 µM
- TGI [49]: > 100 µM

Structure (SMILES): COc1ccc([C@H]2c3cc4c(cc3OC(O)(CO)[C@H]2C(=O)O)OCO4)c(OC)c1 (some centres undefined) (tested in a mixture with another compound)
- TGI [2]: > 100 µM
- TGI [3]: > 100 µM
- TGI [4]: > 100 µM
- TGI [6]: > 100 µM
- TGI [7]: > 100 µM
- TGI [8]: > 100 µM
- TGI [9]: > 100 µM
- TGI [50]: > 100 µM
- TGI [10]: > 100 µM
- TGI [11]: > 100 µM
- TGI [12]: > 100 µM
- TGI [51]: > 100 µM
- TGI [13]: > 100 µM
- TGI [52]: > 100 µM
- TGI [14]: > 100 µM
- TGI [15]: > 100 µM
- TGI [16]: > 100 µM
- TGI [17]: > 100 µM
- TGI [18]: > 100 µM
- TGI [19]: > 100 µM
- TGI [20]: > 100 µM
- TGI [53]: > 100 µM
- TGI [54]: > 100 µM
- TGI [21]: > 100 µM
- TGI [22]: > 100 µM
- TGI [23]: > 100 µM
- TGI [24]: > 100 µM
- TGI [55]: > 100 µM
- TGI [25]: > 100 µM
- TGI [26]: > 100 µM
- TGI [28]: > 100 µM
- TGI [29]: > 100 µM
- TGI [30]: > 100 µM
- TGI [31]: > 100 µM
- TGI [32]: > 100 µM
- TGI [33]: > 100 µM
- TGI [35]: > 100 µM
- TGI [36]: > 100 µM
- TGI [37]: > 100 µM
- TGI [38]: > 100 µM
- TGI [39]: 95.8 µM
- TGI [40]: > 100 µM
- TGI [41]: > 100 µM
- TGI [42]: > 100 µM
- TGI [43]: > 100 µM
- TGI [56]: > 100 µM
- TGI [57]: > 100 µM
- TGI [44]: > 100 µM
- TGI [45]: > 100 µM
- TGI [46]: > 100 µM
- TGI [58]: > 100 µM
- TGI [47]: > 100 µM
- TGI [48]: > 100 µM
- TGI [49]: > 100 µM
- TGI [59]: > 100 µM
